The source of these data is patent EP3046573B1, “AMYLIN ANALOGUES” (Zealand Pharma A/S, priority 2013, dated 2015).

Like-named read-outs stand apart in the source and are kept apart here. Numbered stars: 1 amine (or outer) side, 2 acyl side, 3 side chain; on linkers, the order of the positions; unused ones are H or OH. Bridge positions count the residues as written; N and C are the ends. Square brackets hold non-standard residues; d marks the D form. Peptide text beside a SMILES is read from it. * marks the point of attachment. C20 diacid = O=C(O)CCCCCCCCCCCCCCCCCCC(=O)*; γGlu = O=C(O)[C@H](CCC(=O)[*:2])N[*:1]; NMeI = CC[C@H](C)[C@H](NC)C(=O)O; Sar = CNCC(=O)O

Assay [1] has as its target T1, human calcitonin receptor (hCTR2) (Homo sapiens, UniProt P30988).
T1 construct: expressed in transfected cells
T1 sequence (P30988 25-474): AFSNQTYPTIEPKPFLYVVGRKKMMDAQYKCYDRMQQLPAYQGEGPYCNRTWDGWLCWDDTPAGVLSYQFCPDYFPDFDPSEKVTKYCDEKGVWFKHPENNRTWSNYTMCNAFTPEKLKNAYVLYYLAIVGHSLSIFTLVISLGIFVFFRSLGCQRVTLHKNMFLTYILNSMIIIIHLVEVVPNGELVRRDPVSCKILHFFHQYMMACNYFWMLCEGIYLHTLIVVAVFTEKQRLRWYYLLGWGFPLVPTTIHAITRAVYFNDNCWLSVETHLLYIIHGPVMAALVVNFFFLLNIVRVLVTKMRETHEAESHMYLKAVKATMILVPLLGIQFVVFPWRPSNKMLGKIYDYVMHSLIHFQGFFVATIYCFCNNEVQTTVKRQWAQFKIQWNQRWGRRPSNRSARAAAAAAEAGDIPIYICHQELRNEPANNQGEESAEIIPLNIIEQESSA
The experiment in a line: hCTR2 assay: induction of cAMP (AlphaScreen cAMP Assay kit) in COS7 cells expressing hCTR2. Conditions: cAMP induction in COS7 cells expressing hCTR2; average of a minimum of 3 determinations; read-out: hCTR2 EC50. Format: cell-based. In outline: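 Functional agonism is measured as cAMP accumulation in a COS7 line stably transfected with hCTR2, lacking endogenous RAMPs. Peptides act for 15 min at 37° C with IBMX present, and curves are fitted with a 4-parameter logistic model.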

The target in assay [2] is T2, human amylin receptor 3 (hAMYR3) consisting of hCTR2 co-expressed with human Receptor Activity Modifying Protein 3 (hRAMP3) (Homo sapiens, UniProt O60896+P30988).
T2 construct: expressed in transfected cells
T2 sequence (P30988 25-474): T1 sequence (P30988 25-474)
T2 sequence (O60896 24-148 partner): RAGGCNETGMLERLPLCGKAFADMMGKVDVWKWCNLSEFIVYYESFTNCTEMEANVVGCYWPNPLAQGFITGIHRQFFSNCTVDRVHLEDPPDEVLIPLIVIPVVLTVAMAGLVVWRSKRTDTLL
The experiment in a line: hAMYR3 assay: induction of cAMP (AlphaScreen cAMP Assay kit) in COS7 cells expressing hAMYR3. It is filed as cell-based. In outline: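 Stable COS7 clone co-expressing hCTR2 and hRAMP3, stimulated 15 min at 37° C with increasing peptide in Tyrode buffer pH 7.4 with 100 µM IBMX and 0.1% casein. cAMP measured by AlphaScreen after lysis; EC50 and % efficacy versus pramlintide from 4PL fit.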

For the compound `CC[C@H](C)[C@@H](C(=O)N[C@@H](CC(C)C)C(=O)N[C@@H](CO)C(=O)N[C@@H](CO)C(=O)N[C@H](C(=O)N[C@@H](CCC(=O)O)C(=O)N[C@H](C(=O)NCC(=O)N[C@@H](CO)C(=O)N[C@@H](CCC(=O)O)C(=O)N[C@H](C(=O)N1CCC[C@H]1C(N)=O)[C@@H](C)O)C(C)C)[C@@H](C)O)N(C)C(=O)[C@H](C)NC(=O)CN(C)C(=O)[C@H](Cc1ccccc1)NC(=O)[C@H](CO)NC(=O)[C@H](CO)NC(=O)[C@H](CO)NC(=O)[C@H](CO)NC(=O)[C@H](CCCNC(=N)N)NC(=O)[C@H](Cc1c[nH]cn1)NC(=O)[C@H](CC(C)C)NC(=O)[C@H](Cc1ccccc1)NC(=O)[C@H](CCC(=O)O)NC(=O)[C@H](C)NC(=O)[C@H](CC(C)C)NC(=O)[C@H](CCCNC(=N)N)NC(=O)[C@H](C)NC(=O)[C@@H](NC(=O)[C@H](C)NC(=O)[C@@H]1CSSC[C@H](NC(=O)[C@H](CCCNC(=N)N)NC(=O)CC[C@H](NC(=O)CCCCCCCCCCCCCCCCCCC(=O)O)C(=O)O)C(=O)N[C@@H](CC(N)=O)C(=O)N[C@@H]([C@@H](C)O)C(=O)N[C@@H](C)C(=O)N[C@@H]([C@@H](C)O)C(=O)N1)[C@@H](C)O` [Compound 118, [19CD]-isoGlu-RC()NTATC()ATARLAEFLHRSSSSF-Gly(Me)-A-Ile(Me)-LSSTEVGSETP-NH2] ({C20 diacid-γGlu}-RCNTATCATARLAEFLHRSSSSF[Sar]A[NMeI]LSSTEVGSETP-NH2; disulfide 2-7), the EC50 in assay [1] was 0.062 nM; in assay [2] (cAMP induction in COS7 cells expressing hAMYR3, average of a minimum of 3 determinations, read-out: hAMY R3 EC50) it was 0.12 nM.

For `CC[C@H](C)[C@@H](C(=O)N[C@@H](CC(C)C)C(=O)N[C@@H](CO)C(=O)N[C@@H](CO)C(=O)N[C@H](C(=O)N[C@@H](CCC(=O)O)C(=O)N[C@H](C(=O)NCC(=O)N[C@@H](CO)C(=O)N[C@@H](CCC(=O)O)C(=O)N[C@H](C(=O)N1CCC[C@H]1C(N)=O)[C@@H](C)O)C(C)C)[C@@H](C)O)N(C)C(=O)[C@H](C)NC(=O)CN(C)C(=O)[C@H](Cc1ccccc1)NC(=O)[C@H](CO)NC(=O)[C@H](CO)NC(=O)[C@H](CO)NC(=O)[C@H](CO)NC(=O)[C@H](CCCNC(=N)N)NC(=O)[C@H](Cc1c[nH]cn1)NC(=O)[C@H](CC(C)C)NC(=O)[C@H](Cc1ccccc1)NC(=O)[C@H](CCC(=O)O)NC(=O)[C@H](C)NC(=O)[C@H](CC(C)C)NC(=O)[C@H](CCCNC(=N)N)NC(=O)[C@H](CC(=O)O)NC(=O)[C@@H](NC(=O)[C@H](C)NC(=O)[C@@H]1CSSC[C@H](NC(=O)[C@H](CCCNC(=N)N)NC(=O)CC[C@H](NC(=O)CCCCCCCCCCCCCCCCCCC(=O)O)C(=O)O)C(=O)N[C@@H](CC(N)=O)C(=O)N[C@@H]([C@@H](C)O)C(=O)N[C@@H](C)C(=O)N[C@@H]([C@@H](C)O)C(=O)N1)[C@@H](C)O` [Compound 120, [19CD]-isoGlu-RC()NTATC()ATDRLAEFLHRSSSSF-Gly(Me)-A-Ile(Me)-LSSTEVGSETP-NH2] ({C20 diacid-γGlu}-RCNTATCATDRLAEFLHRSSSSF[Sar]A[NMeI]LSSTEVGSETP-NH2; disulfide 2-7), the EC50 in assay [1] is 0.043 nM; in assay [2], 0.15 nM.
